We go through five compounds from patent US20240335433A1, “CELL CYCLE SYNCHRONIZATION PROCESS” (priority 2023, published 2024).

Data set [1] can be described thus: Removal of thymidine analogues from circulation (S phase labelling window after injection). Particulars: mouse, in vivo. Here is the method: These two molecules become stably incorporated into DNA during DNA replication (S phase). When either is injected into mice, it labels at high levels only those tissue cells actively replicating DNA (in S phase) at that time. Because these drugs are both rapidly removed from circulation, only cells actively replicating DNA within 1 hour of injection are labelled. If the second drug is introduced into the same animal at a later time, thereafter, it too will label only those cells in S phase at the time of the second injection. The tissues are then collected and stained for BRDU and EDU with separate fluorescence tags. The intensity of each marker is then determined by fluorescent image analysis. Fortunately, it is the characteristic of dividing cells that these two labels are incorporated most efficiently into nuclei of cells near the middle of S phase. When the two injections are separated by the length of the cell cycle, therefore, both markers will be stained at maximal levels in the same cell. The cell cycle characteristics of a tissue can then be determined by comparing results following injections separated by increasing lengths of time.

How the values of data set [2] were obtained: Extensive studies were conducted to determine the optimal spacing between injections for C57Bl/6 mice, as differences between mouse strains might exist. […] After the 9 injections spaced apart by these times were complete, the animals were weighed over the next 10 days to determine their overall health. […]
The next data set concerns Lewis lung carcinoma. Kind of data set: Lewis lung carcinoma tumor growth in C57Bl/6 mice. The class given is in vivo, mouse. The following applies: for inhibition of Lewis lung carcinoma tumor growth: Cell Cycle Therapy, IP injections every 10 hours 40 min with rest periods. Here is the method:
The Lewis Lung Carcinoma model is a commonly used tumor model for assessment of general anti-tumor activity. The cells can be grown in culture and then introduced underneath the skin on the back of syngeneic […] mice. When 1-2 million cells are introduced, tumors begin to form within 6-10 days. This is an extremely aggressive tumor, with doubling times of 3 days or less. […] In this study 2 million cells were injected underneath the skin on the mid back of the mice. The tumor was measured with calipers to determine its size. To confirm size measurements, the tumor was excised in total and weighed at the end of the experiment. All anti-tumor drug injections were intraperitoneal (IP). Mice in the range of 8-16 weeks of age were utilized, but within a given experiment, mice within the same age range were generally used for comparison. All studies were conducted under standard guidelines, and conformed to the protocol approved the Case Western Reserve and the Northeast Ohio Medical University IACUC. Weight loss was measured to determine animal health, with loss of over 20% an indication for experimental termination. Similarly, tumors were not allowed to grow beyond 15% of body weight.
The ability of a treatment regimen to block tumor growth was determined with injections of topotecan, either alone or in combination with EDU. […] In this case, the increase of tumor size was measured. […] In general, EDU injections of 0.2 ml of 9 mg/ml drug (in phosphate buffered saline) were performed. These injections involved intermittent rest periods, generally 1-2 rest periods between 4-5 EDU injections. To increase the effectiveness of EDU injections, two such injections were at times performed within a 20 min period every 10 hours 40 min.
When higher volumes were injected (0.23 ml) the rest times were increased. […] With 0.2 ml injections of topotecan ([…]), three injections were often followed by 4-5 rest periods (FIGS. 12 and 13A-C).
EDU was always injected at 9 mg/ml (0.2 ml per injection). 1-3 such injections were followed immediately, or after 1-5 rest periods, by 1-4 injections of topotecan (0.18 ml, 0.2 mg/ml).
The experiment involved 24 C57Bl/6 mice, each of which received injections of 2 million Lewis lung carcinoma cells under the skin on their backs. Three days later these animals were randomly divided into three groups. The first group received three injections of topotecan separated by the length of the cell cycle (10 hours 40 min). The three-injection set was then followed by a long rest period precisely equal to 5 cell cycle lengths; and the process was repeated (FIG. 14C). For comparison, another set of mice received a single injection at the same time each day. […] All topotecan injections were identical (0.2 ml of 0.18 mg/ml topotecan). As a control, 8 mice received 0.2 ml injections of phosphate buffered saline (PBS) at the same time as the cell cycle group. […]

For another data set, the system named is mouse gut crypt cells. Kind of data set: Cell cycle synchrony of gut crypt cells after repeated injections (EDU/BRDU incorporation, cyclin D1 staining). The following applies: for ability to induce cell cycle synchrony in the mouse gut: EDU: high concentrations; for cell cycle synchrony of gut cells: four 10-hour injections separated by 40 hours without injection, repeated four times. On the procedure:
All experiments were performed according to separate protocols approved by IACUC committees at the following institutions: the Northeast Ohio Medical University, and Case Western Reserve University. Studies of cell cycle length were approved by the IACUC of the Cleveland State University. Recall that the proliferating cells of the small intestine are located near the basement membrane in regions termed the crypt. Cells in this region are the only cells that proliferate in the gut, with the exception of rare proliferation of support cells in the matrix of the villi. Epithelial cells in the crypt region are essentially all proliferating all the time. Consequently, they are actively labeled by a pulse of EDU to label cells in S phase. Cells not labeled with EDU are in G2-G1 phases, and are labeled with cyclin D1 (FIG. 6).
Finally, the tissue was analyzed a full 10 hours following the final topotecan injection.
As a control to the above studies, the tissues described above were stained for the expression of cyclin D1. […] Thus, upon entry into S phase the level of cyclin D1 is always reduced to near zero. It returns to high levels of expression upon entry into G2 phase, but only in cells that are actively proliferating. Therefore, an actively proliferating cell would incorporate EDU if it were in S phase, and it would express cyclin D1 if it were in any other cell cycle phase. If all the cells of a tissue either incorporate EDU or express high cyclin D1 levels, all the cells of the tissue are actively proliferating. […] Further analysis was performed at 2 hour intervals from 0 hours to 10 hours following the final topotecan injection.
Separate animals received injections of 0.20 ml of topotecan at 0.33 mg/ml, 0.20 mg/ml, or 0.12 ml of 0.20 mg/ml topotecan. Each animal was given four 10-hour injections of a given concentration, separated by 40 hours without injection; repeated four times. At 5 hours following the final topotecan injection, BRDU was injected into the animals to identify cells in S phase between the timed topotecan injection. Animals injected with BRDU were then injected again 5 hours later with EDU (10 hours after the final topotecan injection), to identify cells in S phase at the time the next successive topotecan injection would have taken place. 50 min following the EDU injection tissues were collected and analyzed.

Another data set concerns NIH3T3. Kind of data set: Cell cycle specific toxicity in NIH3T3 cultures (clonal survival after brief drug treatment). Type of data set: cell-based.
How the values of data set [3] were obtained: Analyses began with approximately 10% of the LD50 concentration. It was then escalated until overall toxicity to the animals was observed. The final concentration of topotecan injected was 0.33 mg/ml-0.2 mg/ml; 0.05-0.27 ml per injection (depending on the mouse strain and weight of the mouse). Following determination of general topotecan toxicity following multiple injections, it was necessary to determine if, as predicted, injections spaced apart by the length of the cell cycle would be less harmful to the animals.
[…] […] […] Thus, 9 injections at 8 hours, or 9 injections at 12 hours, 14 hours, 16 hours or 20 hours were performed, and the effect of these upon the animals determined. The 8 hour time was selected to definitely be shorter than the cell cycle, and 20 hours to be longer than the cell cycle, so that negative controls would be built into the protocol.
This is another data set of the same source.

For data set [4], the system named is Lewis lung carcinoma tumors. As to the kind of experiment: Cell cycle synchrony of Lewis lung carcinoma tumor cells (EDU labeling). The following applies: 9 injections separated by 10 hours, tumor-bearing C57Black mice. The class given is in vivo, mouse. On the procedure: All studies of tumor killing were performed exactly as described above for studies of cell cycle synchrony. Thus, 9 injections of topotecan were separated from one another by 10 hours in C57Black mice carrying a tumor of approximately 0.5 gm. EDU was injected into three different topotecan treated animals at 1 hour, 5 hour or 10 hours as a marker for DNA synthesis. A control tumor-bearing mouse received mock injections and was injected with EDU 5 hours after the final injection. […] together with normal gut tissue was collected and analyzed.

The test system of the next data set is DNA synthesis. As to the kind of experiment: Rate of DNA synthesis after topotecan (observation of the inventor).
The mark [5] stands for this setting: injections every 24 hours for up to 20 days.

Entries after “also recorded” stand apart in the source; their conditions may differ. Where only a bound is given, the exact number is not on record here.

Description for DNA synthesis: Topotecan treatments would be removed and followed at various times thereafter with an BRDU treatment.
Protocol for NIH3T3: The examples were performed on the contact inhibited cell line, NIH3T3. […] They must be cultured so as to never reach confluence; since, like normal cells, they stop growing when becoming confluent on the culture plate. Thus, they are plated at 60,000 to 150,000 cells per 35 mm plate, and transferred to a new plate every 2-3 days. The cells must also be limited in passage number to ensure their growth rate is rapid. The definition of low passage cells will vary from one lab to another, and the actual cell cycle length of these cells may vary, but it is critical that from one experiment to another the length of the cell cycle remains constant.
Constant killing over a broad concentration range: The drug to be tested is diluted across a broad concentration range, and placed on separate actively proliferating NIH3T3 cultures for two hours. […] The plates are then fixed, stained with crystal violet, and the number of colonies counted and compared to a mock treated culture. […] Cloning of the cells following drug treatment allows a quantitative determination of the number of surviving cells.
Serum stimulated growth: NIH3T3 cells stop growing and enter quiescence when serum is reduced in the medium to 0.3%, so long as they are at a sufficient density on the plate. […] The drug to be analyzed is added for 3 hours at various times following serum addition, and then washed off. […]

Take `O=c1[nH]c(=O)n([C@H]2C[C@H](O)[C@@H](CO)O2)cc1Br` [BRDU, Bromodeoxyuridine]: the “time after injection within which replicating cells are labelled (rapid removal from circulation)” value in data set [1] was no more than 1 h.
On to `C#Cc1cn([C@H]2C[C@H](O)[C@@H](CO)O2)c(=O)[nH]c1=O` [EDU, 5-Ethynyl-2′-deoxyuridine], for which the toxicity to animals entry in data set [2] (EDU injections) is “not highly toxic to animals”. Also, in the data set on Lewis lung carcinoma, the “inhibition of Lewis lung carcinoma tumor growth” value was “reduction in tumor growth; also recorded: highly efficient in blocking tumor growth”. Further, the “ability to induce cell cycle synchrony in the mouse gut” value in the data set with mouse gut crypt cells was “shown to induce cell cycle synchrony”.
For `COc1cc([C@@H]2c3cc4c(cc3[C@@H](O[C@@H]3O[C@@H]5CO[C@@H](C)O[C@H]5[C@H](O)[C@H]3O)[C@H]3COC(=O)[C@H]23)OCO4)cc(OC)c1O` [Etoposide], in the data set with NIH3T3, the “width of concentration range selectively toxic for S phase cells” value stood at 10 fold.
In the case of `N.N.[Cl][Pt][Cl]` [cisplatin], in the data set with Lewis lung carcinoma (daily injections), the “delay of tumor formation” value is reported as “less than 3 days”. Moreover, the “cell cycle synchrony of injected animals' cells” value in the data set on mouse gut crypt cells (repeated injections, any time between injections) is on record as “at no time were the cisplatin injected cells synchronous”.
Take `CC[C@@]1(O)C(=O)OCc2c1cc1n(c2=O)Cc2cc3c(CN(C)C)c(O)ccc3nc2-1` [topotecan]: the “injection spacing best tolerated” value in data set [2] (9 injections, spacings 9 h 30 min to 11 h 20 min, weight over next 10 days, C57Bl/6 mice) worked out at 10 hours 40 minutes. For the same compound, in data set [2] (mouse, in vivo), the “percent weight loss, injections separated by cell cycle length compared to daily injections” value was “dramatically reduced”. For the same compound, the “toxicity on continued injections” value in data set [2] (mouse, in vivo) is “without developing significant toxicity”. The “total amount of drug tolerated by the animals” value in data set [3] (4 injections every 10 hours separated by 40 hours without injection) is “increased”. The “ability of animals to survive repeated injections” value in data set [3] (9 injections at 8, 12, 14, 16 or 20 hours between injections) is reported as “had to be euthanized”. For the same compound, the “inhibition of tumor appearance, longer than in untreated animals” value in the data set on Lewis lung carcinoma (Cell Cycle Therapy with injections every 10 hours 40 minutes and rest periods) was 7 to 12 days. Further, the “inhibition of Lewis lung carcinoma tumor growth” value in the data set with Lewis lung carcinoma is on record as “dramatically inhibited; also recorded: highly efficient in blocking tumor growth”. The “tumor growth compared to the control group” value in the data set with Lewis lung carcinoma (FIG. 14B, both topotecan treatments (Cell Cycle and Daily)) was “dramatic decreases in tumor growth”. The “reduction of tumor size” value in the data set with Lewis lung carcinoma (Lewis lung carcinoma, any treatment protocol tested) is listed as “never been found in these studies to reduce tumor size”. Moreover, in the data set on Lewis lung carcinoma (either protocol (Cell Cycle or daily), 9.5 days), the “average tumor size relative to PBS treated animals” value is recorded as “¼”. The tumor killing result with Lewis lung carcinoma (setting [5]) is given as “tumor killing was enhanced”. For the same compound, the “cell cycle synchrony of tumor cells (EDU labeling at 1, 5, 10 hours)” value in data set [4] is “had not been synchronized”. Also, the “effect on rate of DNA synthesis” value with DNA synthesis is given as “dramatically reduces the rate of DNA synthesis”. In addition, in the data set with mouse gut crypt cells (9 injections every 10 hours), the “cell cycle synchrony of gut epithelial cells” value is “complete cell cycle synchrony”. For the same compound, the “cell cycle phase / EDU incorporation of crypt cells” value in the data set with mouse gut crypt cells (9 injections every 10 hours, 4 to 8 hours following the final injection) was “in S phase; also recorded: high levels of EDU incorporation”; in the data set with mouse gut crypt cells (9 injections every 10 hours, 2 hours and 10 hours following the final injection) it was “low levels of EDU incorporation; also recorded: not synthesizing DNA”. Also, the “cyclin D1 expression in crypt cells” value with mouse gut crypt cells (9 injections every 10 hours, 5 hours after the final injection) is recorded as “greatly reduced proportion of the cells”; in the data set with mouse gut crypt cells (9 injections every 10 hours, immediately after or 10 hours following the final injection), “expressed at high levels”. Further, the “gut cells in S phase (EDU incorporation)” value in the data set on mouse gut crypt cells (9 injections every 10 hours, 5 hours following the final injection) is “essentially all the cells were in S phase; also recorded: efficiently labeled with EDU”; in the data set with mouse gut crypt cells (9 injections every 10 hours, 10 hours following the final injection) it was “none of the cells were in S phase; also recorded: very little EDU labeling”; with mouse gut crypt cells (9 injections every 10 hours, immediately following the final injection), “no cells were in S phase”. In addition, the “gut morphology, EDU incorporation and synchrony of crypt cells” value with mouse gut crypt cells (9 injections separated by 9 hours) is “unhealthy gut morphology and few gut cells able to incorporate EDU; also recorded: no evidence of cell cycle synchrony”. Further, the “cell cycle synchrony of normal gut cells in tumor-bearing animals” value with mouse gut crypt cells (9 injections separated by 10 hours, C57Black mice with Lewis lung carcinoma) was “induced cell cycle synchrony; also recorded: have been synchronized”. Also, in the data set with mouse gut crypt cells (9 injections separated by times other than every 10 hours), the “synchronization of gut tissues” value is on record as “In no case were the tissues synchronized”. For the same compound, the “ability to induce cell cycle synchrony in the mouse gut” value in the data set on mouse gut crypt cells is listed as “shown to induce cell cycle synchrony”. In addition, the figures for the “cell cycle synchrony of gut cells” value with mouse gut crypt cells (0.20 ml of 0.33 mg/ml or 0.20 mg/ml) and with mouse gut crypt cells (injected concentration 0.12 mg/ml) were “almost complete” and “very little if any synchrony”, respectively. The “cell cycle synchrony of the gut” value in the data set with mouse gut crypt cells (setting [5]) was “cell cycle synchrony of the gut was observed”. Moreover, in the data set on mouse gut crypt cells (setting [5]), the “crypt cell division interval” value came to 12 h. Further, the “toxicity to gut tissue” value with mouse gut crypt cells (mouse, in vivo) is given as “Even greater toxicity”.
